Columns and labels:
Mus musculus [1] = assay: Effective dose required to determine the oral activity in the mouse LPS-induced TNF alpha assay at a dose of 50 mg/kg; type: functional
MAP kinase p38 = MAP kinase p38 (Homo sapiens, UniProt O15264+Q15759+Q16539+P53778); assay: Compound was tested for inhibition of p38 MAP kinase; type: protein assay
CYP2D6 = CYP2D6 (Homo sapiens, UniProt P10635); assay: Percent inhibition of human hepatic cytochrome P450 2D6 at 10 uM; type: ADME
Mus musculus [2] = species: Mus musculus; assay: Effective dose required to determine the oral activity in the mouse LPS-induced TNF alpha assay; type: functional
Mus musculus [3] = assay: Effective dose required to determine the oral activity in the mouse LPS-induced TNF alpha assay at a dose of 50 mg/Kg; type: functional

CYP2D6, sequence (P10635 whole entry): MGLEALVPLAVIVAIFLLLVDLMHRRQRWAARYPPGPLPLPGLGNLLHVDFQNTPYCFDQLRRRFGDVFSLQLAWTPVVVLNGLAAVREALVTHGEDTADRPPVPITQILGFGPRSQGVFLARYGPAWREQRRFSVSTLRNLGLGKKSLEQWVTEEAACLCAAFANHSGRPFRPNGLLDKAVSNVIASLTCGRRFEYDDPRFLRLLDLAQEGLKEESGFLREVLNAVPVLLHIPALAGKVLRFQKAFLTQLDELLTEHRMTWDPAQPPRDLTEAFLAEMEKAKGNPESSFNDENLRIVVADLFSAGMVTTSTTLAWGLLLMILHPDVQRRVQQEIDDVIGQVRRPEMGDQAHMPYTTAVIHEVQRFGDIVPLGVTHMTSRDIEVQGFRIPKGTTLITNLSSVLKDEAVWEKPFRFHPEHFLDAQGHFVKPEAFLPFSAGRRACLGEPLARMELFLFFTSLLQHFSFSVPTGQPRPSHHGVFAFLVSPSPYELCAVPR

For `C[S+]([O-])c1nccc(-c2c(-c3ccc(F)cc3)ncn2CCCN2CCOCC2)n1` (stereo not drawn), the inhibition in vivo at 50 mg/kg (Mus musculus [1]) was 37% and the IC50 (MAP kinase p38) was 2.2 µM.

Work on `CN(C)c1nccc(-c2c(-c3ccc(F)cc3)ncn2CCCN2CCOCC2)n1` yielded an IC50 (MAP kinase p38) of 3.6 µM.

In the case of `Fc1ccc(-c2ncn(CCCN3CCOCC3)c2-c2ccncn2)cc1`, the inhibition at 10 µM (CYP2D6) is reported as 34% and the ED50 (Mus musculus [2]) is reported as 12 mg/kg.

Molecule `CSc1nccc(-c2c(-c3ccc(F)cc3)ncn2CCCN2CCOCC2)n1` has an inhibition at 10 µM (CYP2D6) of 47%, an ED50 (Mus musculus [2]) of 43 mg/kg and an IC50 (MAP kinase p38) of 2 µM.

`CNc1nccc(-c2c(-c3ccc(F)cc3)ncn2CCCN2CCOCC2)n1` was tested, and the inhibition at 10 µM (CYP2D6) was 11%, the ED50 (Mus musculus [2]) was 19 mg/kg and the IC50 (MAP kinase p38) was 1.9 µM.

`Cc1cc(-c2c(-c3ccc(F)cc3)ncn2CCCN2CCOCC2)ccn1` gave an inhibition at 10 µM (CYP2D6) of 51%, an inhibition in vivo at 50 mg/kg (Mus musculus [1]) of 37% and an IC50 (MAP kinase p38) of 2.1 µM.

Work on `Oc1nccc(-c2c(-c3ccc(F)cc3)ncn2CCCN2CCOCC2)n1` yielded an inhibition in vivo at 50 mg/kg (Mus musculus [1]) of 33% and an IC50 (MAP kinase p38) of 5.5 µM.

With `Nc1cc(-c2c(-c3ccc(F)cc3)ncn2CCCN2CCOCC2)ncn1` the IC50 (MAP kinase p38) was greater than 17 µM.

Molecule `CSc1nc(N)cc(-c2c(-c3ccc(F)cc3)ncn2CCCN2CCOCC2)n1` has an IC50 (MAP kinase p38) greater than 17 µM.

`Cc1cc(-c2c(-c3ccc(F)cc3)ncn2CCCN2CCOCC2)nc(N)n1` showed an IC50 (MAP kinase p38) greater than 17 µM.

Work on `COc1cc(-c2c(-c3ccc(F)cc3)ncn2CCCN2CCOCC2)ncn1` yielded an IC50 (MAP kinase p38) greater than 17 µM.

`CC(=O)Nc1nccc(-c2c(-c3ccc(F)cc3)ncn2CCCN2CCOCC2)n1` was tested, and the inhibition in vivo at 50 mg/kg (Mus musculus [1]) was 12% and the IC50 (MAP kinase p38) was 0.46 µM.

For `Cc1cc(-c2c(-c3ccc(F)cc3)ncn2CCCN2CCOCC2)cc(C)n1`, the IC50 (MAP kinase p38) was greater than 17 µM.

`Cc1nccc(-c2c(-c3ccc(F)cc3)ncn2CCCN2CCOCC2)n1` gave an inhibition at 10 µM (CYP2D6) of 19%, an inhibition in vivo at 50 mg/kg (Mus musculus [3]) of 65% and an IC50 (MAP kinase p38) of 1.3 µM.

With `Nc1nccc(-c2c(-c3ccc(F)cc3)ncn2CCCN2CCOCC2)n1` the inhibition at 10 µM (CYP2D6) was 47%.

With `Fc1ccc(-c2ncn(CCCN3CCOCC3)c2-c2ccncc2)cc1` [SB-210313] the inhibition at 10 µM (CYP2D6) was 86% and the ED50 (Mus musculus [2]) was 42 mg/kg.

`CC(=O)Nc1cc(-c2c(-c3ccc(F)cc3)ncn2CCCN2CCOCC2)ncn1` gave an inhibition in vivo at 50 mg/kg (Mus musculus [1]) of 21% and an IC50 (MAP kinase p38) of 3.5 µM.

`COc1nccc(-c2c(-c3ccc(F)cc3)ncn2CCCN2CCOCC2)n1` gave an inhibition at 10 µM (CYP2D6) of 7% and an ED50 (Mus musculus [2]) of 14 mg/kg.

From ChEMBL document CHEMBL1130658 (Bioorg Med Chem Lett, 1998)
